Consider 42 molecules from patent publication US10213415B2, “Compounds as opioid receptor modulators” (JANSSEN PHARMACEUTICA NV, priority 2004, dated 2019).

The target in this assay is T1, human mu opioid receptor (Homo sapiens, UniProt P35372).
T1 construct: purchased Perkin Elmer RBHOMM400UA; host or cells: Chinese Hamster Ovary cells (recombinant expression)
Kind of assay: Human Mu Opioid Receptor Binding Assay (CHO membranes, 3H-Damgo). The note with it: read-out: hKi μ. On the procedure: Membranes from Chinese Hamster Ovary cells expressing the human […] opioid receptor (Perkin Elmer #RBHOMM400UA) are homogenized in assay buffer (50 mM Tris, pH 7.5 with 5 mM MgCl2) using a glass tissue grinder, Teflon pestle and a Steadfast Stirrer (Fisher Scientific). The concentration of membranes is adjusted to 300 μg/mL in assay buffer and 100 μL is dispensed into each well of the assay plate, a 96 well round bottom polypropylene plate. Compounds to be tested are solubilized in DMSO (Pierce), 10 mM, then diluted in assay buffer to 6× the desired final concentration. The ligand, ^3H-Damgo (Perkin Elmer #NET-902) is also diluted in assay buffer to 3.6 nM. In a second 96 well round bottom polypropylene plate, known as the premix plate, 60 μL of the 6× compound is combined with 60 μL of 3.6 nM ^3H-Damgo. From this premix plate 50 μL is transferred to the assay plate containing the membranes, in duplicate. The assay plate is incubated for 2 h at room temperature. A GF/C 96 well filter plate (Perkin Elmer #6005174) is pretreated with 0.3% polyethylenimine for 30 min. The contents of the assay plate are filtered through the filter plate using a Packard Filtermate Harvester, and washed 3 times with 0.9% saline that is 4° C. The filter plate is dried, the underside sealed, and 30 μL Microscint20 (Packard #6013621) added to each well. A Topcount-NXT Microplate Scintillation Counter (Packard) is used to measure emitted energies in the range of 2.9 to 35 KeV. […] Nonspecific binding is determined in the presence of 1 μM unlabelled Damgo (Tocris #1171).

T1 sequence (P35372 whole entry): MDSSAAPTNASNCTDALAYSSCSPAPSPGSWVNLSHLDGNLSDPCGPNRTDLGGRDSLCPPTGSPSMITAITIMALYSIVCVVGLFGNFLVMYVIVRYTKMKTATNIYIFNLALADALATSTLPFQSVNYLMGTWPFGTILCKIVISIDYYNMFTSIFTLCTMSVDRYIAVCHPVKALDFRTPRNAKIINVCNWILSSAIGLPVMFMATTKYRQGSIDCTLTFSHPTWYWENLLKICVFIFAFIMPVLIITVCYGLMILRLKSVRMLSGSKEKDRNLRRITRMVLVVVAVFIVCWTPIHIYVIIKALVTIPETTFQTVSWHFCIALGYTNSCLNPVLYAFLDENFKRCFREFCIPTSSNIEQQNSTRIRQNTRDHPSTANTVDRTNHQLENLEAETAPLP

With `C[C@@H](c1nc(Cc2ccccc2)c[nH]1)N(C)C(=O)[C@@H](N)Cc1ccc(O)cc1` [Cpd 204], the Ki amounted to 7.7 nM.
As to `Cc1cc(C(N)=O)cc(C)c1C[C@H](N)C(=O)N(Cc1ccccc1)[C@H](C)c1nc(-c2ccccc2)c[nH]1` [Cpd 113], the Ki is 16 nM.
In the case of `Cc1cc(O)cc(C)c1C[C@H](N)C(=O)N(Cc1nc(-c2ccc(C(=O)O)c(F)c2)c(C)[nH]1)C(C)C` [Cpd 37] it was 183 nM; in that of `Cc1cc(C(N)=O)cc(C)c1C[C@H](N)C(=O)N(Cc1ccccc1)[C@@H](C)c1nc(-c2ccc(C(F)(F)F)cc2)c[nH]1` [Cpd 42], 5.8 nM.
The value for `COC(=O)c1cc(CN(C(=O)[C@@H](N)Cc2ccccc2)[C@@H](C)c2nc(-c3ccccc3)c[nH]2)ccc1OC` [Cpd 266] was 69 nM.
The value for `COc1ccc(CN(C(=O)[C@@H](N)Cc2c(C)cc(O)cc2C)[C@H](COCc2ccccc2)c2nc(-c3ccccc3)c[nH]2)cc1OC` [Cpd 22] was around 200 nM; that for `Cc1cc(C(N)=O)cc(C)c1C[C@H](N)C(=O)N(C1CCCCC1)[C@H](C)c1nc(-c2ccccc2)c[nH]1` [Cpd 128] was 58 nM.
Consider `Cc1cc(O)cc(C)c1C[C@H](N)C(=O)N(CC(=O)O)Cc1nc(-c2ccccc2)c[nH]1` [Cpd 129], for which the Ki was 25.3 nM.
The value for `Cc1cc(C(N)=O)cc(C)c1C[C@H](N)C(=O)N(Cc1ccc(C(=O)O)cc1)[C@@H](C)c1nc(-c2cccc3ccccc23)c[nH]1` [Cpd 13] was 4.8 nM; that for `COC(=O)c1cccc(CN(C(=O)[C@@H](N)Cc2c(C)cc(C(N)=O)cc2C)[C@@H](C)c2nc(-c3cccc4ccccc34)c[nH]2)c1` [Cpd 10] was 15.5 nM; that for `COc1cc(Br)c(CN(C(=O)[C@@H](N)Cc2c(C)cc(C(N)=O)cc2C)[C@@H](C)c2nc(-c3ccccc3)c[nH]2)cc1OC` [Cpd 229] was 12 nM.
In the case of `COc1cccc(CN(C(=O)[C@@H](N)Cc2c(C)cc(O)cc2C)[C@@H](C)c2nc(-c3ccccc3)c[nH]2)c1` [Cpd 33] it was 6.9 nM.
Turning to `Cc1[nH]c(CN(C(=O)[C@@H](N)Cc2ccc(O)cc2)C(C)C)nc1-c1cncnc1` [Cpd 132], the Ki amounted to 166 nM.
The value for `COc1ccc(CN(C(=O)[C@@H](N)Cc2c(C)cc(O)cc2C)[C@@H](COCc2ccccc2)c2nc(-c3ccccc3)c[nH]2)cc1OC` [Cpd 21] was 37.6 nM; that for `COc1ccc(CN(C(=O)[C@@H](N)Cc2c(C)cc(C(N)=O)cc2C)[C@@H](C)c2nc(-c3ccccc3Br)c[nH]2)cc1OC` [Cpd 26] was 17 nM.
In the case of `Cc1cc(O)cc(C)c1C[C@H](N)C(=O)N(Cc1nc(C=Cc2ccccc2)c(C)[nH]1)C(C)C` [Cpd 38] it was 19 nM; in that of `COc1ccc(CN(C(=O)[C@@H](N)Cc2c(C)cc(C(N)=O)cc2C)[C@@H](C)c2nc(-c3ccccc3C#N)c[nH]2)cc1OC` [Cpd 27], 30 nM; in that of `Cc1cc(O)cc(C)c1C[C@H](N)C(=O)N(Cc1nc(-c2ccc(CO)cc2)c(C)[nH]1)C(C)C` [Cpd 39], 0.9 nM.
The value for `CC(C)[C@@H](c1nc(-c2ccccc2)c[nH]1)N(C(=O)[C@@H](N)Cc1cccc(C(N)=O)c1)C(C)C` [Cpd 137] was 445 nM; that for `Cc1cc(O)cc(C)c1C[C@H](N)C(=O)N(Cc1nc(-c2ccc(C#N)cc2)c(C)[nH]1)C(C)C` [Cpd 41] was 1.6 nM; that for `Cc1cc(O)cc(C)c1C[C@H](N)C(=O)N(Cc1nc(-c2ccccc2)c[nH]1)C(c1ccccc1)c1ccccc1` [Cpd 40] was 152 nM.
`Cc1cc(C(N)=O)cc(C)c1C[C@H](N)C(=O)N(Cc1ccccc1Br)[C@@H](C)c1nc(-c2ccccc2)c[nH]1` [Cpd 3]: the Ki was found to be 13 nM.
For the molecule `Cc1cc(O)cc(C)c1C[C@H](N)C(=O)N(Cc1nc(-c2cccc(NS(C)(=O)=O)c2)c(C)[nH]1)C(C)C` [Cpd 45], the Ki amounted to 1.2 nM.
Take `COC(=O)c1cc(CN(C(=O)[C@@H](N)Cc2c(C)cc(O)cc2C)[C@@H](C)c2nc(-c3ccccc3)c[nH]2)ccc1OC` [Cpd 268]: the Ki turned out to be 5.79 nM.
In the case of `Cc1cc(C(N)=O)cc(C)c1C[C@H](N)C(=O)N(Cc1ccccc1C#N)[C@@H](C)c1nc(-c2ccccc2)c[nH]1` [Cpd 2] it was 2.9 nM; in that of `Cc1cc(O)cc(C)c1C[C@H](N)C(=O)N(Cc1nc(-c2cc(N)cc(C(=O)O)c2)c(C)[nH]1)C(C)C` [Cpd 47], 22 nM; in that of `CN[C@@H](Cc1ccc(OCc2ccccc2)cc1)C(=O)N(Cc1ccc(OC)c(C(=O)O)c1)[C@@H](C)c1nc(-c2ccccc2)c[nH]1` [Cpd 274], above 1000 nM.
For `Cc1cc(O)cc(C)c1C[C@H](N)C(=O)N(Cc1nc(-c2ccc(OC(F)(F)F)cc2)c(C)[nH]1)C(C)C` [Cpd 44], the Ki came to 8.7 nM.
In the case of `Cc1cc(O)cc(C)c1C[C@H](N)C(=O)N(Cc1nc(-c2ccc(CCC(=O)O)cc2)c(C)[nH]1)C(C)C` [Cpd 46] it was 35 nM; in that of `COc1ccc(CN(C(=O)[C@@H](N)Cc2c(C)cc(C(N)=O)cc2C)[C@@H](C)c2nc(-c3ccccc3C(N)=O)c[nH]2)cc1OC` [Cpd 28], 44 nM.
The value for `COc1ccc(CN(C(=O)[C@@H](N)Cc2c(C)cc(C(N)=O)cc2C)[C@@H](C)c2nc(-c3cccc(Br)c3)c[nH]2)cc1OC` [Cpd 19] was 18.2 nM.
In the case of `COC(=O)c1cc(CN(Cc2nc(-c3ccccc3)c[nH]2)C(=O)[C@@H](N)Cc2c(C)cc(C(N)=O)cc2C)ccc1OC` [Cpd 7] it was 6.8 nM.
`Cc1cc(O)cc(C)c1C[C@H](N)C(=O)N(Cc1nc(-c2cccc(OC(F)(F)F)c2)c(C)[nH]1)C(C)C` [Cpd 43]: the Ki stood at 6.9 nM.
Regarding `COc1ccc(CN(C(=O)[C@@H](N)Cc2c(C)cc(C(N)=O)cc2C)[C@@H](C)c2nc(-c3cccc(C(N)=O)c3)c[nH]2)cc1OC` [Cpd 23], the Ki stood at 34.3 nM.
The value for `COc1ccc(CN(Cc2nc(-c3ccccc3)c[nH]2)C(=O)[C@@H](N)Cc2c(C)cc(O)cc2C)cc1OC` [Cpd 35] was 2.8 nM; that for `COc1ccc(CN(C(=O)[C@@H](N)Cc2c(C)cc(O)cc2C)[C@@H](C)c2nc(-c3ccccc3)c[nH]2)cc1` [Cpd 32] was 6.8 nM; that for `Cc1cc(O)cc(C)c1C[C@H](N)C(=O)N(Cc1ccc(O)c(O)c1)[C@@H](C)c1nc(-c2ccccc2)c[nH]1` [Cpd 15] was 285 nM.
In the case of `COc1ccc(CN(C(=O)[C@@H](N)Cc2c(C)cc(C(N)=O)cc2C)[C@@H](C)c2nc(-c3cccc(C#N)c3)c[nH]2)cc1OC` [Cpd 24] it was 9.3 nM; in that of `Cc1cc(C(=O)O)cc(C)c1C[C@H](N)C(=O)N(Cc1ccc(C(=O)O)cc1)[C@@H](C)c1nc(-c2ccccc2)c[nH]1` [Cpd 49], 48 nM.
Turning to `Cc1cc(O)cc(C)c1C[C@H](N)C(=O)N(CC1CCNCC1)[C@@H](C)c1nc(-c2ccccc2)c[nH]1` [Cpd 16], the Ki turned out to be 16 nM.
The value for `COc1ccc(CN(C(=O)[C@@H](N)Cc2c(C)cc(O)cc2C)[C@@H](C)c2nc(-c3ccccc3)c[nH]2)c(OC)c1` [Cpd 34] was 19 nM.
The value for `Cc1cc(O)cc(C)c1C[C@H](N)C(=O)N(Cc1ccc(OCc2ccccc2)c(OCc2ccccc2)c1)[C@@H](C)c1nc(-c2ccccc2)c[nH]1` [Cpd 30] was 34 nM.
